Assay results as given in patent US20220380763A1, “NUCLEIC ACID DELIVERY ENHANCER” (NATIONAL UNIVERSITY CORPORATION KOCHI UNIVERSITY, priority 2019, published 2022).

What was measured:
S2-013 cells = experiment: Matrigel invasion assay; type: cell-based, human; conditions: unmodified siRNA added with folic acid-cationic oligopeptide complex (Fol-Dab8A and Fol-Dab8B); versus control siRNA, P<0.05
Experimental: Each of the scrambled control siRNA, SNORA18 siRNA, NUP85 siRNA, WASF2 siRNA, and SNORA22 siRNA (all used in Example 5) with the folic acid-cationic oligopeptide complex added was added to the culture solution of S2-013 cells, and Matrigel invasion assay was performed after 48 hours.
4.0×10^4 cells were suspended in a serum-free medium and seeded in the upper chamber of a Matrigel Invasion Chamber (24-well plate, pore size: 8 μm, manufactured by Becton, Dickinson, and Company). A solvent containing 5% fetal bovine serum was added to the lower chamber. After the cells were incubated in the upper chamber for 20 hours, three independent areas were observed under a microscope, and the cells invading the lower chamber were counted. The same experiment was repeated three times, and the cell invasion ability of 52-013 cells into which each siRNA was taken up was compared.
The “*” denotes a significant difference at P<0.05 as compared to the control in the t-test.
Each of the scrambled control siRNA (SEQ ID NOs: 3 and 4), SNORA18 siRNA (SEQ ID NOs: 21 and 22), NUP85 siRNA (SEQ ID NOs: 23 and 24), WASF2 siRNA (SEQ ID NOs: 25 and 26), and SNORA22 siRNA (SEQ ID NOs: 27 and 28) was added with 2 equivalents of Dab8, Fol-Dab8A, or Fol-Dab8B to the culture solution of pancreatic cancer cell line S2-013 in culture. As a control, each of the control siRNA, SNORA18 siRNA, NUP85 siRNA, WASF2 siRNA, and SNORA22 siRNA was added alone to the culture solution of the S2-013 cells.
After 48 hours of culture, the Matrigel invasion assay was performed. In the Matrigel invasion assay, the number of cells that have migrated from the upper chamber to the lower chamber is shown. The “*” denotes a significant difference at P<0.05 as compared to the control in the t-test.

[1] = system: S2-013 pancreatic cancer cells; experiment: Lysosome (LysoTracker) and siRNA staining, confocal microscopy; type: cell-based, human; conditions: chemically-modified Alexa488-labeled siRNA with Fol-Dab8A or Fol-Dab8B, 2 equivalents, overnight

Substance | cell invasion (S2-013 cells) | intracellular localization of siRNA [1]
NUP85 siRNA: double-stranded siRNA against NUP85, SEQ ID NOs: 7 and 8 (Table 2) (chain 1 CAGCGGCAGAUGACUGAACAA; chain 2 UUGUUCAGUCAUCUGCCGCUG; listed as RNA, chemistry not given here) | significantly suppressed | 
SNORA22 siRNA: double-stranded siRNA against SNORA22, SEQ ID NOs: 11 and 12 (Table 2) (chain 1 CUUGGCUUUGACCCUGUGCUA; chain 2 UAGCACAGGGUCAAAGCCAAG; chemistry not given here) | significantly suppressed | localized in lysosomes
WASF2 siRNA: double-stranded siRNA against WASF2, SEQ ID NOs: 9 and 10 (Table 2) (chain 1 UAGGAUUAGAUCAUUAGCUCA; chain 2 UGAGCUAAUGAUCUAAUCCUA; listed as RNA, chemistry not given here) | significantly suppressed | 
SNORA18 siRNA: double-stranded siRNA against SNORA18, SEQ ID NOs: 5 and 6 (Table 2) (chain 1 UUUACUUUACUCACAGGACUA; chain 2 UAGUCCUGUGAGUAAAGUAAA; listed as RNA, chemistry not given here) | significantly suppressed | 
